From patent US8796307B2, “Beta2-adrenoreceptor agonists” (Novartis AG, priority 1999, dated 2014)
Structures can show the parent of a compound that is named as a salt. Where two headings read alike, the source gives them in different places.

Tests used:
β1-adrenoreceptor = β1-adrenoreceptor (Homo sapiens, UniProt P08588); assay: cAMP determination in cells expressing β1-adrenoreceptor; format: cell-based
Excerpt: (§1) Accordingly the invention also provides a compound of formula I in free, salt or solvate form for use as a pharmaceutical. […] The β2 agonist activity, onset of action and duration of action of the agents of the invention may be tested using the guinea pig tracheal stip in vitro assay according to the procedure of R. A. Coleman and A. T. Nials, J. Pharmacol. Methods (1989), 21(1), 71-86. The binding potency and selectivity for the β2-adrenoreceptor relative to the β1-adrenoreceptor can be measured by a classical filtration binding assay according to the procedure of Current Protocols in Pharmacology (S. J. Enna (editor-in-chief) et al, John Wiley & Son, Inc, 1998), or by cAMP determination in cells expressing β2- or β1-adrenoceptor, according to the procedure of B. January et al, British J. Pharmacol. 123: 701-711 (1998).

β2-adrenoreceptor = β2-adrenoreceptor (Homo sapiens, UniProt P07550); assay: cAMP determination in cells expressing β2-adrenoreceptor; format: cell-based; details: read-out: EC50 (β2), binding potency measured by cAMP determination
Chain of β2-adrenoreceptor (P07550 whole entry, species assumed): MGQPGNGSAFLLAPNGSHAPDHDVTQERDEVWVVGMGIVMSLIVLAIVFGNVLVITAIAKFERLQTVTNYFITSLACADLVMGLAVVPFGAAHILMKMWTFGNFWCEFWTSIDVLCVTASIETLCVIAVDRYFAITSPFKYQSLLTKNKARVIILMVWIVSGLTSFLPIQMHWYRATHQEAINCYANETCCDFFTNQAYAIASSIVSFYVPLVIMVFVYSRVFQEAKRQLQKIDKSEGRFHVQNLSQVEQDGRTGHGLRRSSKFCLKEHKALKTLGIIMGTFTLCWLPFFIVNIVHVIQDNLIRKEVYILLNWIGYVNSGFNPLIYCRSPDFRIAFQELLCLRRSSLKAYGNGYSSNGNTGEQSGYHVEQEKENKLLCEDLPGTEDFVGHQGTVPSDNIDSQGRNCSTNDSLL
Excerpt: as §1

[1] = test system: guinea pig tracheal strip; assay: guinea pig tracheal strip in vitro assay
Excerpt: as §1

[2] = cells expressing β1-adrenoreceptor, read-out: EC50 (β1), binding potency measured by cAMP determination

Chain of β1-adrenoreceptor (P08588 whole entry, species assumed): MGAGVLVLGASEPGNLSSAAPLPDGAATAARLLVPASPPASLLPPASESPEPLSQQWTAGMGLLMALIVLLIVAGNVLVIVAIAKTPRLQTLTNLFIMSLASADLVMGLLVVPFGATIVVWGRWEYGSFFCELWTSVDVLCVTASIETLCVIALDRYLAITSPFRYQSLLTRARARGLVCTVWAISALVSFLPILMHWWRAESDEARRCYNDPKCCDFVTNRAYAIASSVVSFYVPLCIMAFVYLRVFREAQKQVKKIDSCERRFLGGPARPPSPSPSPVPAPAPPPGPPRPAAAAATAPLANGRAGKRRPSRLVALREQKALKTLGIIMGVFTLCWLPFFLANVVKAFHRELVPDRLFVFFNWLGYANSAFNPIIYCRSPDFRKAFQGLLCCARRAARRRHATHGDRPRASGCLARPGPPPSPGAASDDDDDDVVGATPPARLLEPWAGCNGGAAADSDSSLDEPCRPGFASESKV

EC50 (β1-adrenoreceptor; [2]) [nM] | EC50 (β2-adrenoreceptor) [nM] | SMILES | further results
9.52 | 0.92 | COc1ccc(OC)c2c1CC(NC[C@H](O)c1ccc(O)c3[nH]c(=O)ccc13)C2 [Example 1, (R)-8-hydroxy-5-[2-(4,7-Dimethoxy-indan-2-ylamino)-1-hydroxy-ethyl]-1H-quinolin-2-one hydrochloride] | 
 | 0.23 | CCc1cc2c(cc1CC)CC(NCC(O)c1ccc(O)c3[nH]c(=O)ccc13)C2 (stereo not shown) [Example 2, 8-hydroxy-5-[2-(5,6-diethyl-indan-2-ylamino)-1-hydroxy-ethyl]-1H-quinolin-2-one] | T(50%), time for inhibition of contraction to decay to 50% of its maximum value ([1]; at 71 nM concentration): > 400 min; EC50 (β1-adrenoreceptor): 1.25 nM
14.5 | 6.07 | CCc1ccc(CC)c2c1CC(NC[C@H](O)c1ccc(O)c3[nH]c(=O)ccc13)C2 [Example 4] | T(50%), time for inhibition of contraction to decay to 50% of its maximum value ([1]; at 100 nM): 82 min
6.1 | 0.79 | O=c1ccc2c([C@@H](O)CNC3Cc4cc5c(cc4C3)CCCC5)ccc(O)c2[nH]1 [Example 5] | T(50%), time for inhibition of contraction to decay to 50% of its maximum value ([1]; at 100 nM): 444 min
3.6 | 0.3 | O=c1ccc2c([C@@H](O)CNC3Cc4cc5c(cc4C3)OCCO5)ccc(O)c2[nH]1 [Example 6] | 
8.46 | 0.57 | CCCc1cc2c(cc1CCC)CC(NC[C@H](O)c1ccc(O)c3[nH]c(=O)ccc13)C2 [Example 8] | 
0.5 | 0.012 | CC1(NC[C@H](O)c2ccc(O)c3[nH]c(=O)ccc23)Cc2ccccc2C1 [Example 27, 8-Hydroxy-5-[(R)-1-hydroxy-2-(2-methyl-indan-2-ylamino)-ethyl]-1H-quinolin-2-one] | T(50%), time for inhibition of contraction to decay to 50% of its maximum value ([1]; at 1.0 nM): 222 min
 |  | CC1(NC[C@H](O)c2ccc(O)c3[nH]c(=O)ccc23)Cc2cc3c(cc2C1)CCCC3 [Example 29, 8-Hydroxy-5-[(R)-1-hydroxy-2-(2-methyl-2,3,5,6,7,8-hexahydro-1H-cyclopenta[b]naphthalen-2-ylamino)-ethyl]-1H-quinolin-2-one] | T(50%), time for inhibition of contraction to decay to 50% of its maximum value ([1]; at 10 nM): 279 min
